A word on the Ki: it is a measure of affinity in units of concentration, obtained from inhibition or displacement. Broadly, the IC50 is the concentration that inhibits the measured activity by half. As a reminder, the MIC is the lowest concentration that inhibits growth of the organism. One may read the inhibition as the share of the control response that was lost under treatment.

≈ marks a conversion by molar mass, not a printed value.

Tested on in the first assay: not listed separately
The experiment in a line: Inhibition of Porphyromonas gingivalis recombinant SerB653 phosphatase expressed in Escherichia coli BL21 using phosphoserine as substrate measured every 10 secs by malachite green colorimetric assay.
Conditions: not given
As for `CC(=O)c1c(Nc2ccc(C(F)(F)F)cc2)[nH]c2c(C(F)(F)F)cc(Cl)cc2c1=O`, the Ki was 2.5 µM.

On to `O=C(c1c(Nc2cccc(Cl)c2Cl)[nH]c2c(Cl)ccc([N+](=O)[O-])c2c1=O)C1CC1`, for which the Ki was found to be 4.5 µM.

Take `O=C(c1c(Nc2ccc(Cl)c(Cl)c2)[nH]c2c(Cl)ccc(Cl)c2c1=O)C1CC1`: the Ki was determined as 4.1 µM.

As for `CC(C)C(=O)c1c(Nc2ccc(Cl)cc2Cl)[nH]c2c(Cl)ccc(Cl)c2c1=O`, the Ki turned out to be 2.9 µM.

As to `CCC(=O)c1c(Nc2ccc(Cl)c(Cl)c2)[nH]c2c(Cl)ccc([N+](=O)[O-])c2c1=O`, the Ki was found to be 4.1 µM.

On to `O=C(c1c(Nc2ccc(F)cc2F)[nH]c2c(Cl)ccc([N+](=O)[O-])c2c1=O)C1CC1`, for which the Ki amounted to 4 µM.

As for `CCC(=O)c1c(Nc2cc(Cl)ccc2Cl)[nH]c2c(Cl)ccc([N+](=O)[O-])c2c1=O`, the Ki is 1.4 µM.

Turning to `CC(C)C(=O)c1c(Nc2cc(Cl)cc(Cl)c2)[nH]c2c(Cl)ccc(Cl)c2c1=O`, the Ki came to 3.3 µM.

On to `CC(=O)c1c(Nc2ccc(Cl)cc2Cl)[nH]c2c(C(F)(F)F)cc(Cl)cc2c1=O`, for which the Ki was found to be 2.5 µM.

On to `CCC(=O)c1c(Nc2cc(Cl)cc(Cl)c2)[nH]c2c(Cl)ccc([N+](=O)[O-])c2c1=O`, for which the Ki was 2.5 µM.

With `CC(=O)c1c(Nc2ccc(Cl)cc2)[nH]c2c(C(F)(F)F)cc(Cl)cc2c1=O`, the Ki turned out to be 2.7 µM.

Tested on in the next assay: not listed separately
The experiment in a line: Inhibition of Porphyromonas gingivalis recombinant SerB653 phosphatase expressed in Escherichia coli BL21 using phosphoserine as substrate after 1 hr by malachite green colorimetric assay.
Conditions: not given
For `CC(=O)c1c(Nc2ccc(C(F)(F)F)cc2)[nH]c2c(C(F)(F)F)cc(Cl)cc2c1=O`, the IC50 was 7 µM.

With `CC(=O)c1c(Nc2ccc([N+](=O)[O-])cc2)[nH]c2c([N+](=O)[O-])cc(Cl)cc2c1=O`, the IC50 was found to be 14.5 µM.

With `CC(C)C(=O)c1c(Nc2cc(Cl)ccc2Cl)[nH]c2c(Cl)ccc([N+](=O)[O-])c2c1=O`, the IC50 turned out to be 19 µM.

Take `CC(C)CC(=O)c1c(Nc2ccc(Cl)cc2Cl)[nH]c2c(Cl)ccc([N+](=O)[O-])c2c1=O`: the IC50 was found to be 19.6 µM.

As to `CC(C)C(=O)c1c(Nc2ccc(F)cc2F)[nH]c2c(Cl)ccc([N+](=O)[O-])c2c1=O`, the IC50 was determined as 12.3 µM.

`CC(=O)c1c(Nc2cc(F)cc(F)c2)[nH]c2c(Cl)c(Cl)ccc2c1=O`: the IC50 turned out to be 18.6 µM.

Take `O=C(c1c(Nc2cccc(Cl)c2Cl)[nH]c2c(Cl)ccc([N+](=O)[O-])c2c1=O)C1CC1`: the IC50 worked out at 12.6 µM.

In the case of `CC(C)CC(=O)c1c(Nc2cccc(Cl)c2Cl)[nH]c2c(Cl)ccc([N+](=O)[O-])c2c1=O`, the IC50 came out at 18.9 µM.

Take `CC(=O)c1c(Nc2cc(C(F)(F)F)cc(C(F)(F)F)c2)[nH]c2c(F)ccc(F)c2c1=O`: the IC50 was 19.4 µM.

`O=C(c1c(Nc2ccc(Cl)c(Cl)c2)[nH]c2c(Cl)ccc(Cl)c2c1=O)C1CC1`: the IC50 is 11.5 µM.

As for `CC(C)C(=O)c1c(Nc2cc(F)cc(F)c2)[nH]c2c(Cl)ccc([N+](=O)[O-])c2c1=O`, the IC50 was 19.1 µM.

With `CC(C)CC(=O)c1c(Nc2cc(F)ccc2F)[nH]c2c(Cl)ccc(Cl)c2c1=O`, the IC50 is 19.3 µM.

Consider `O=C(c1c(Nc2ccc(Cl)cc2F)[nH]c2c(Cl)ccc([N+](=O)[O-])c2c1=O)C1CC1`, for which the IC50 was found to be 18.7 µM.

Consider `CCC(=O)c1c(Nc2ccc(Cl)cc2Cl)[nH]c2c(Cl)ccc([N+](=O)[O-])c2c1=O`, for which the IC50 was 19.6 µM.

As for `CC(C)C(=O)c1c(Nc2ccc(Cl)cc2Cl)[nH]c2c(Cl)ccc(Cl)c2c1=O`, the IC50 is 8 µM.

For the compound `CC(=O)c1c(Nc2cccc(Cl)c2Cl)[nH]c2c(Cl)ccc([N+](=O)[O-])c2c1=O`, the IC50 is 19.6 µM.

In the case of `CCC(=O)c1c(Nc2ccc(Cl)c(Cl)c2)[nH]c2c(Cl)ccc([N+](=O)[O-])c2c1=O`, the IC50 was determined as 11.6 µM.

In the case of `CCC(=O)c1c(Nc2cc(F)cc(F)c2)[nH]c2c(Cl)ccc([N+](=O)[O-])c2c1=O`, the IC50 was determined as 19.4 µM.

On to `CC(=O)c1c(Nc2cc(C(F)(F)F)cc(C(F)(F)F)c2)[nH]c2c(Cl)ccc(F)c2c1=O`, for which the IC50 is 19.3 µM.

Turning to `O=C(c1c(Nc2ccc(F)cc2F)[nH]c2c(Cl)ccc([N+](=O)[O-])c2c1=O)C1CC1`, the IC50 is 11.3 µM.

Regarding `CC(=O)c1c(Nc2cc(Cl)cc(Cl)c2)[nH]c2c(Cl)ccc([N+](=O)[O-])c2c1=O`, the IC50 was found to be 18.8 µM.

Take `CC(C)CC(=O)c1c(Nc2cc(F)cc(F)c2)[nH]c2c(Cl)ccc([N+](=O)[O-])c2c1=O`: the IC50 was 16.3 µM.

For `CC(=O)c1c(Nc2cc(Cl)ccc2Cl)[nH]c2c(Cl)ccc(Cl)c2c1=O`, the IC50 stood at 16.7 µM.

Regarding `CC(C)CC(=O)c1c(Nc2cc(Cl)ccc2Cl)[nH]c2c(Cl)ccc([N+](=O)[O-])c2c1=O`, the IC50 came to 18.8 µM.

As for `CC(C)C(=O)c1c(Nc2cc(Cl)cc(Cl)c2)[nH]c2c(Cl)ccc([N+](=O)[O-])c2c1=O`, the IC50 worked out at 17.9 µM.

As to `CCC(=O)c1c(Nc2cc(Cl)ccc2Cl)[nH]c2c(Cl)ccc([N+](=O)[O-])c2c1=O`, the IC50 was found to be 4 µM.

For `CC(C)C(=O)c1c(Nc2cc(Cl)cc(Cl)c2)[nH]c2c(Cl)ccc(Cl)c2c1=O`, the IC50 came out at 9.2 µM.

For the compound `CC(=O)c1c(Nc2ccc(Cl)cc2Cl)[nH]c2c(C(F)(F)F)cc(Cl)cc2c1=O`, the IC50 was determined as 7 µM.

For `CCC(=O)c1c(Nc2cc(Cl)cc(Cl)c2)[nH]c2c(Cl)ccc([N+](=O)[O-])c2c1=O`, the IC50 is 6.9 µM.

For the compound `CC(=O)c1c(Nc2ccc(Cl)cc2)[nH]c2c(C(F)(F)F)cc(Cl)cc2c1=O`, the IC50 is 7.5 µM.

The next assay has as its system Porphyromonas gingivalis. The experiment in a line: Antibacterial activity against Porphyromonas gingivalis ATCC 33277 after 2 hrs by broth microdilution method. In kind it is functional. To be noted: ATCC 33277, 2 h. For orientation: In broth dilution the organism is exposed to a series of concentrations in liquid medium.
Compound `CCC(=O)c1c(Nc2cc(Cl)ccc2Cl)[nH]c2c(Cl)ccc([N+](=O)[O-])c2c1=O` yielded an MIC of 0.05 µg/mL (≈ 0.113 µM).

In another assay the test system is Porphyromonas gingivalis. The assay can be described thus: Inhibition of Porphyromonas gingivalis recombinant SerB653 phosphatase expressed in Escherichia coli BL21 using phosphoserine as substrate at 50 uM after 1 hr by malachite green colorimetric assay.
Conditions: not given
Consider `CC(=O)c1c(Nc2ccc(C(F)(F)F)cc2)[nH]c2c(C(F)(F)F)cc(Cl)cc2c1=O`, for which the inhibition was determined as 97.7%.

Consider `CC(=O)c1c(Nc2ccc([N+](=O)[O-])cc2)[nH]c2c([N+](=O)[O-])cc(Cl)cc2c1=O`, for which the inhibition was 87%.

As to `CC(C)C(=O)c1c(Nc2cc(Cl)ccc2Cl)[nH]c2c(Cl)ccc([N+](=O)[O-])c2c1=O`, the inhibition was 97.3%.

With `CC(C)CC(=O)c1c(Nc2ccc(Cl)cc2Cl)[nH]c2c(Cl)ccc([N+](=O)[O-])c2c1=O`, the inhibition was determined as 97.8%.

As to `CC(C)C(=O)c1c(Nc2ccc(F)cc2F)[nH]c2c(Cl)ccc([N+](=O)[O-])c2c1=O`, the inhibition was found to be 80.1%.

As for `CC(=O)c1c(Nc2cc(F)cc(F)c2)[nH]c2c(Cl)c(Cl)ccc2c1=O`, the inhibition worked out at 93.5%.

Turning to `O=C(c1c(Nc2cccc(Cl)c2Cl)[nH]c2c(Cl)ccc([N+](=O)[O-])c2c1=O)C1CC1`, the inhibition turned out to be 98.5%.

Consider `CC(C)CC(=O)c1c(Nc2cccc(Cl)c2Cl)[nH]c2c(Cl)ccc([N+](=O)[O-])c2c1=O`, for which the inhibition stood at 98.6%.

As for `CC(=O)c1c(Nc2cc(C(F)(F)F)cc(C(F)(F)F)c2)[nH]c2c(F)ccc(F)c2c1=O`, the inhibition was found to be 95%.

Turning to `O=C(c1c(Nc2ccc(Cl)c(Cl)c2)[nH]c2c(Cl)ccc(Cl)c2c1=O)C1CC1`, the inhibition was determined as 89.7%.

With `CC(C)C(=O)c1c(Nc2cc(F)cc(F)c2)[nH]c2c(Cl)ccc([N+](=O)[O-])c2c1=O`, the inhibition was found to be 94.7%.

Regarding `CC(C)CC(=O)c1c(Nc2cc(F)ccc2F)[nH]c2c(Cl)ccc(Cl)c2c1=O`, the inhibition came out at 91%.

`O=C(c1c(Nc2ccc(Cl)cc2F)[nH]c2c(Cl)ccc([N+](=O)[O-])c2c1=O)C1CC1`: the inhibition turned out to be 95.5%.

Turning to `CCC(=O)c1c(Nc2ccc(Cl)cc2Cl)[nH]c2c(Cl)ccc([N+](=O)[O-])c2c1=O`, the inhibition is 97.4%.

Consider `CC(C)C(=O)c1c(Nc2ccc(Cl)cc2Cl)[nH]c2c(Cl)ccc(Cl)c2c1=O`, for which the inhibition amounted to 97.7%.

Consider `CC(=O)c1c(Nc2cccc(Cl)c2Cl)[nH]c2c(Cl)ccc([N+](=O)[O-])c2c1=O`, for which the inhibition stood at 96.7%.

Consider `CCC(=O)c1c(Nc2ccc(Cl)c(Cl)c2)[nH]c2c(Cl)ccc([N+](=O)[O-])c2c1=O`, for which the inhibition came out at 98.5%.

Take `CCC(=O)c1c(Nc2cc(F)cc(F)c2)[nH]c2c(Cl)ccc([N+](=O)[O-])c2c1=O`: the inhibition was 92.7%.

As for `CC(=O)c1c(Nc2cc(C(F)(F)F)cc(C(F)(F)F)c2)[nH]c2c(Cl)ccc(F)c2c1=O`, the inhibition came out at 98.5%.

With `O=C(c1c(Nc2ccc(F)cc2F)[nH]c2c(Cl)ccc([N+](=O)[O-])c2c1=O)C1CC1`, the inhibition amounted to 85.6%.

For the compound `CC(=O)c1c(Nc2cc(Cl)cc(Cl)c2)[nH]c2c(Cl)ccc([N+](=O)[O-])c2c1=O`, the inhibition was determined as 99.3%.

As for `CC(C)CC(=O)c1c(Nc2cc(F)cc(F)c2)[nH]c2c(Cl)ccc([N+](=O)[O-])c2c1=O`, the inhibition came out at 97.5%.

On to `CC(=O)c1c(Nc2cc(Cl)ccc2Cl)[nH]c2c(Cl)ccc(Cl)c2c1=O`, for which the inhibition was 86.6%.

On to `CC(C)CC(=O)c1c(Nc2cc(Cl)ccc2Cl)[nH]c2c(Cl)ccc([N+](=O)[O-])c2c1=O`, for which the inhibition turned out to be 98.8%.

As to `CC(C)C(=O)c1c(Nc2cc(Cl)cc(Cl)c2)[nH]c2c(Cl)ccc([N+](=O)[O-])c2c1=O`, the inhibition was 99.1%.

On to `CCC(=O)c1c(Nc2cc(Cl)ccc2Cl)[nH]c2c(Cl)ccc([N+](=O)[O-])c2c1=O`, for which the inhibition stood at 97.8%.

Regarding `CC(C)C(=O)c1c(Nc2cc(Cl)cc(Cl)c2)[nH]c2c(Cl)ccc(Cl)c2c1=O`, the inhibition amounted to 94.9%.

For the compound `CC(=O)c1c(Nc2ccc(Cl)cc2Cl)[nH]c2c(C(F)(F)F)cc(Cl)cc2c1=O`, the inhibition was 99%.

For the compound `CCC(=O)c1c(Nc2cc(Cl)cc(Cl)c2)[nH]c2c(Cl)ccc([N+](=O)[O-])c2c1=O`, the inhibition came out at 97.4%.

On to `CC(=O)c1c(Nc2ccc(Cl)cc2)[nH]c2c(C(F)(F)F)cc(Cl)cc2c1=O`, for which the inhibition is 95.7%.

The values are drawn from ChEMBL document CHEMBL2010789, “Identification of 3-acyl-2-phenylamino-1,4-dihydroquinolin-4-one derivatives as inhibitors of the phosphatase SerB653 in Porphyromonas gingivalis, implicated in periodontitis” (Bioorg Med Chem Lett, 2012).
